Test results from paper doi:10.1101/2025.05.14.653428v1 (bioRxiv, 2025).
Where a SMILES comes first, the peptide text is derived from it.

Key:
[1] = Evaluation of toxicity in vivo; design: species or system mice; conditions: 10 days intraperitoneal, 1 mg/mouse/day, N=10/group
TGF-β in hepatocytes = assay: TGF-β mRNA and protein in cultured hepatocytes; assay type: cell-based, murine; conditions: hepatocytes on vitronectin, 24 hours
Huh-7 hepatoma cell line = assay: TGF-β protein in Huh-7 cells; assay type: cell-based; conditions: cultured on vitronectin, 50μg/mL, 24 hours
hepatocytes = assay type: cell-based, murine; conditions: 50μg/mL, 24 hours, flow cytometry
pFAK in hepatocytes = pFAK in hepatocytes by western blotting; assay type: cell-based, murine; conditions: suspension without FCS 2 hours, 50μg/mL for 30 minutes
[2] = GLQGE detection in plasma after injection; assay type: in vivo, mice; conditions: for time to enter the circulation / time until cleared from the bloodstream: LC-MS/MS; for Tmax: mouse

Row | Compound | blood values of kidney function [1] | blood values of liver function [1] | blood values of pancreas function [1] | complete blood count [1] | TGF-β mRNA expression in wildtype hepatocytes after FAK inhibition (TGF-β in hepatocytes; 5μM) | TGF-β mRNA in cultured hepatocytes compared to GLOGE (TGF-β in hepatocytes; 50μg/mL, qPCR) | TGF-β protein in Huh-7 (Huh-7 hepatoma cell line) | hepatocyte apoptosis (annexinv-propidium-iodide staining) (hepatocytes) | hepatocyte proliferation (ki67 staining) (hepatocytes) | total TGF-β protein in hepatocytes (TGF-β in hepatocytes; 50μg/mL, MLEC bioassay) | TGF-β mRNA expression in cultured hepatocytes compared to untreated control (TGF-β in hepatocytes; 50μg/mL, qPCR) | pFAK in hepatocytes from β3 global knockout mice (pFAK in hepatocytes) | pFAK in hepatocytes (pFAK in hepatocytes; western blotting) | time to enter the circulation ([2]; i.p. injection of 0.5 mg GLQGE) [min] | time until cleared from the bloodstream ([2]; i.p. injection of 0.5 mg GLQGE) [min] | Tmax ([2]; ip, 0.5 mg/mouse) [min] | Tmax ([2]; sc, 1 mg/mouse) [min] | time to enter the circulation ([2]; s.c. injection of 1 mg GLQGE) [min] | time until cleared from the bloodstream ([2]; s.c. injection of 1 mg GLQGE) [min]
1 | GLOGE (head to tail) | no significant abnormalities | no significant abnormalities | no significant abnormalities | no significant abnormalities |  |  |  |  |  |  |  |  |  |  |  |  |  |  | 
2 | CS(=O)(=O)c1cccc(CNc2nc(Nc3ccc4c(c3)CCC(=O)N4)ncc2C(F)(F)F)c1 [PF573228, reference compound] |  |  |  |  | rise |  |  |  |  |  |  |  |  |  |  |  |  |  | 
3 | GLNGE (head to tail) | no significant abnormalities | no significant abnormalities | no significant abnormalities | no significant abnormalities |  | diminished | reduced |  |  |  |  |  |  |  |  |  |  |  | 
4 | CC(C)C[C@@H]1NC(=O)CNC(=O)[C@H](CCC(=O)O)NC(=O)CNC(=O)[C@H](CCC(N)=O)NC1=O [GLQGE] (cyclo(EGLQG)) | no significant abnormalities | no significant abnormalities | no significant abnormalities | no significant abnormalities |  |  |  | did not affect | did not affect | suppressed | diminished | increase | increased | ≤ 5 | ≤ 120 | 15 | 15 | ≤ 5 | ≤ 120
